Experimental data from patent publication US6906095B2, “Indolylalkylidenehydrazine-carboximidamide derivatives as 5-hydroxytryptamine-6 ligands” (Wyeth, priority 2002, dated 2005).

target: T1, human cloned 5-HT6 receptors (Homo sapiens, UniProt P50406); experiment: 5-HT6 binding affinity, [3H]-LSD displacement in membranes of Hela cells; conditions: not given
T1 construct: expressed in transfected cells; host or cells: Hela cells
T1 sequence (P50406 whole entry): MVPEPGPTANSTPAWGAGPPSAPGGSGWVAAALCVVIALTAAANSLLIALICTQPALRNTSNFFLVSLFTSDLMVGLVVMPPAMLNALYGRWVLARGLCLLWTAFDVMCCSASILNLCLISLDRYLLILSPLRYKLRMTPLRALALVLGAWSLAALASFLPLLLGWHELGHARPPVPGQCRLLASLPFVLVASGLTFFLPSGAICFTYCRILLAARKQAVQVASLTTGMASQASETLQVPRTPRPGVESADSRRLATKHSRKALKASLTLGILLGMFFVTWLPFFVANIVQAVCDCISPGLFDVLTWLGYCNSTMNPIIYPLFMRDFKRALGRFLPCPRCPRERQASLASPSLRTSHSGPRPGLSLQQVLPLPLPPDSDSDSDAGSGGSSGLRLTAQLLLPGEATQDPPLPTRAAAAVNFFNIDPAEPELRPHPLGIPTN

Compound | Ki [nM]
CC(C)CC(=NNC(=N)N)c1cn(S(=O)(=O)c2ccccc2)c2ccccc12 [Example 7, 2-{3-methyl-1-[1-(phenylsulfonyl)-1H-indol-3-yl]butylidene}hydrazinecarboximidamide] | 12
CCC(=NNC(=N)N)c1cn(S(=O)(=O)c2ccc3ccccc3c2)c2ccc(F)cc12 [Example 120, 2-{1-[5-fluoro-1-(2-naphthylsulfonyl)-1H-indol-3-yl]propylidene}hydrazinecarboximidamide] | 85
CCC(=NNC(=N)N)c1cn(S(=O)(=O)c2ccc(N)cc2)c2ccc(F)cc12 [Example 119, 2-(1-{1-[(4-aminophenyl)sulfonyl]-5-fluoro-1H-indol-3-yl}propylidene)hydrazinecarboximidamide] | 2
CCC(=NNC(=N)N)c1cn(S(=O)(=O)c2ccccc2)c2ccc(F)cc12 [Example 118, 2-{1-[5-fluoro-1-(phenylsulfonyl)-1H-indol-3-yl]propylidene}hydrazinecarboximidamide] | 7

The remaining lines, values ahead:

Ki [nM] | Compound
33 | CC(=NNC(=N)N)c1cn(S(=O)(=O)c2ccc(F)cc2)c2ccccc12 [Example 44, 2-(1-{1-[(4-fluorophenyl)sulfonyl]-1H-indol-3-yl}ethylidene)hydrazinecarboximidamide]
12 | COc1ccc(S(=O)(=O)n2cc(C(C)=NNC(=N)N)c3ccccc32)cc1OC [Example 69, 2-(1-{1-[(3,4-dimethoxyphenyl)sulfonyl]-1H-indol-3-yl}ethylidene)hydrazinecarboximidamide]
19 | CC(=NNC(=N)N)c1cn(S(=O)(=O)c2ccc(Br)s2)c2ccccc12 [Example 33, 2-(1-{1-[(5-bromothien-2-yl)sulfonyl]-1H-indol-3-yl}ethylidene)hydrazinecarboximidamide]

same assay, conditions: test compound dose 10 nM; [3H]-LSD 3.0 nM

inhibition at 0.01 µM [%] | Compound
40.6 | CC(=NNC(=N)N)c1cn(S(=O)(=O)c2ccccc2)c2ccc(C#N)cc12 [Example 16, 2-{1-[5-cyano-1-(phenylsulfonyl)-1H-indol-3-yl]ethylidene}hydrazinecarboximidamide]
68.3 | N=C(N)NN=C(c1cn(S(=O)(=O)c2ccccc2)c2ccccc12)C1CC1 [Example 68, 2-{cyclopropyl[1-(phenylsulfonyl)-1H-indol-3-yl]methylidene}hydrazinecarboximidamide]
44.3 | CCCCS(=O)(=O)n1cc(C(=NNC(=N)N)C2CC2)c2cc(Cl)ccc21 [Example 77, 2-[[1-(butylsulfonyl)-5-chloro-1H-indol-3-yl](cyclopropyl)methylidene]hydrazinecarboximidamide]

same assay, conditions: test compound dose 100 nM; [3H]-LSD 3.0 nM

Compound | inhibition at 0.1 µM [%]
CC(=NNC(=N)N)c1cn(S(=O)(=O)c2ccc(-c3ccccc3)cc2)c2ccccc12 [Example 26, 2-{1-[1-([1,1′-biphenyl]-4-ylsulfonyl)-1H-indol-3-yl]ethylidene}hydrazinecarboximidamide] | 39.7
N=C(N)NN=C(c1cn(S(=O)(=O)c2ccc3ccccc3c2)c2cc(F)ccc12)C1CC1 [Example 111, 2-{cyclopropyl[6-fluoro-1-(2-naphthylsulfonyl)-1H-indol-3-yl]methylidene}hydrazinecarboximidamide] | 27.6

Next, values leading:

inhibition at 0.1 µM [%] | Compound
68.9 | CC(=NNC(=N)N)c1cn(S(=O)(=O)c2c(C)noc2C)c2ccccc12 [Example 43, 2-(1-{1-[(3,5-dimethylisoxazol-4-yl)sulfonyl]-1H-indol-3-yl}ethylidene)hydrazinecarboximidamide]
75.5 | CC(=NNC(=N)N)c1cn(S(=O)(=O)c2ccc(F)cc2)c2ccccc12 [Example 44, 2-(1-{1-[(4-fluorophenyl)sulfonyl]-1H-indol-3-yl}ethylidene)hydrazinecarboximidamide]
72.4 | COc1ccc(S(=O)(=O)n2cc(C(C)=NNC(=N)N)c3ccccc32)cc1OC [Example 69, 2-(1-{1-[(3,4-dimethoxyphenyl)sulfonyl]-1H-indol-3-yl}ethylidene)hydrazinecarboximidamide]
40.4 | CS(=O)(=O)n1cc(C(=NNC(=N)N)C2CC2)c2ccccc21 [Example 57, 2-{cyclopropyl[1-(methylsulfonyl)-1H-indol-3-yl]methylidene}hydrazinecarboximidamide]
28.2 | CC(=NNC(=N)N)c1cn(S(=O)(=O)c2ccc([N+](=O)[O-])cc2)c2ccccc12 [Example 52, 2-(1-{1-[(4-nitrophenyl)sulfonyl]-1H-indol-3-yl}ethylidene)hydrazinecarboximidamide]
63.5 | CC(=NNC(=N)N)c1cn(S(=O)(=O)c2cccc3ccccc23)c2ccccc12 [Example 50, 2-{1-[1-(1-naphthylsulfonyl)-1H-indol-3-yl]ethylidene}hydrazinecarboximidamide]
33 | CSc1nccc(-c2ccc(S(=O)(=O)n3cc(C(C)=NNC(=N)N)c4ccccc43)s2)n1 [Example 49, 2-{1-[1-({5-[2-(methylthio)pyrimidin-4-yl]thien-2-yl}sulfonyl)-1H-indol-3-yl]ethylidene}-hydrazinecarboximidamide]
75.1 | CC(=NNC(=N)N)c1cn(S(C)(=O)=O)c2ccc(Cl)cc12 [Example 72, 2-{1-[5-chloro-1-(methylsulfonyl)-1H-indol-3-yl]ethylidene}hydrazinecarboximidamide]
76.4 | CC(=NNC(=N)N)c1cn(S(=O)(=O)c2ccc(Br)s2)c2ccccc12 [Example 33, 2-(1-{1-[(5-bromothien-2-yl)sulfonyl]-1H-indol-3-yl}ethylidene)hydrazinecarboximidamide]
39.1 | CC(=NNC(=N)N)c1cn(S(=O)(=O)c2sc3ccc(Cl)cc3c2C)c2ccccc12 [Example 35, 2-(1-{1-[(5-chloro-3-methyl-1-benzothien-2-yl)sulfonyl]-1H-indol-3-yl}ethylidene)hydrazinecarboximidamide]
33.8 | CC(=NNC(=N)N)c1cn(S(=O)(=O)c2c(Cl)sc(Cl)c2Br)c2ccccc12 [Example 27, 2-(1-{1-[(4-bromo-2,5-dichlorothien-3-yl)sulfonyl]-1H-indol-3-yl}ethylidene)hydrazinecarboximidamide]

same assay, conditions: test compound dose 1000 nM; [3H]-LSD 3.0 nM

Compound | % Inhibition [%]
Cc1ccc(S(=O)(=O)n2cc(C=NNC(=N)N)c3ccccc32)cc1 [Example 3, 2-({1-[(4-methylphenyl)sulfonyl]-1H-indol-3-l}methylidene)hydrazinecarboximidamide] | 71.0

same assay, conditions: test compound dose 1000 nM; [3H]-LSD 3.0 nM; read-out: % Inhibition

inhibition at 1 µM [%] | Compound
89.6 | CC(=NNC(=N)N)c1cn(S(=O)(=O)c2ccc3ccccc3c2)c2ccccc12 [Example 64, 2-{1-[1-(2-naphthylsulfonyl)-1H-indol-3-yl]ethylidene}hydrazinecarboximidamide]
68.3 | CCCCC(=NNC(=N)N)c1cn(S(=O)(=O)c2ccc(OC)cc2)c2ccccc12 [Example 62, 2-(1-{1-[(4-methoxyphenyl)sulfonyl]-1H-indol-3-yl}pentylidene)hydrazinecarboximidamide]
98.5 | CC(C)CC(=NNC(=N)N)c1cn(S(=O)(=O)c2ccccc2)c2ccccc12 [Example 7, 2-{3-methyl-1-[1-(phenylsulfonyl)-1H-indol-3-yl]butylidene}hydrazinecarboximidamide]
62.3 | CCCCC(=NNC(=N)N)c1cn(S(=O)(=O)c2ccc3ccccc3c2)c2ccccc12 [Example 65, 2-{1-[1-(2-naphthylsulfonyl)-1H-indol-3-yl]pentylidene}hydrazinecarboximidamide]
89.6 | CC(=NNC(=N)N)c1c(-c2ccc(Cl)cc2)n(S(=O)(=O)c2ccccc2)c2ccccc12 [Example 95, 2-{1-[2-(4-chlorophenyl)-1-(phenylsulfonyl)-1H-indol-3-yl]ethylidene}hydrazinecarboximidamide]
57.4 | N=C(N)NN=Cc1cn(S(=O)(=O)c2ccccc2)c2ccc(OCc3ccccc3)cc12 [Example 21, 2-{[5-(benzyloxy)-1-(phenylsulfonyl)-1H-indol-3-yl]methylidene}hydrazinecarboximidamide]
46.9 | CCCCC(=NNC(=N)N)c1cn(S(=O)(=O)c2ccc3ccccc3c2)c2ccc(Cl)cc12 [Example 82, 2-{1-[5-chloro-1-(2-naphthylsulfonyl)-1H-indol-3-yl]pentylidene}hydrazinecarboximidamide]
76.9 | CCCCC(=NNC(=N)N)c1cn(S(C)(=O)=O)c2ccccc12 [Example 56, 2-{1-[1-(methylsulfonyl)-1H-indol-3-yl]pentylidene}hydrazinecarboximidamide]
86 | CC(=NNC(=N)N)c1c(-c2ccc(F)c(F)c2)n(S(=O)(=O)c2ccccc2)c2ccccc12 [Example 13, 2-{1-[2-(3,4-difluorophenyl)-1-(phenylsulfonyl)-1H-indol-3-yl]ethylidene}hydrazinecarboximidamide]
60.2 | CCCCC(=NNC(=N)N)c1cn(S(=O)(=O)c2ccc3ccccc3c2)c2cc(F)ccc12 [Example 110, 2-{1-[6-fluoro-1-(2-naphthylsulfonyl)-1H-indol-3-yl]pentylidene}hydrazinecarboximidamide]
71 | CCCCC(=NNC(=N)N)c1cn(S(C)(=O)=O)c2ccc(Cl)cc12 [Example 73, 2-{1-[5-chloro-1-(methylsulfonyl)-1H-indol-3-yl]pentylidene}hydrazinecarboximidamide]
